Reference: patent US9617244B2, “Antibacterial quinoline derivatives” (JANSSEN PHARMACEUTICA NV, priority 2012, dated 2017)
In brackets after ≈: the same amount, converted by molar mass.

Tested on: Staphylococcus aureus (ATCC29213)
Test: In-vitro anti-bacterial activity, microtitre plate assay, IC90 determination (non-mycobacterial strains)
Type: cell-based
Settings: 90% inhibitory concentration for bacterial growth, 24 hours, resazurin fluorescence
Method in brief: (§1)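 Inoculum of about 100 TCID50 (10–60 CFU/well) in Mueller-Hinton broth, serial five-fold compound dilutions, 24 h at 37 °C in air. Growth read by resazurin fluorescence (ex 530/em 590 nm); IC90 in μg/ml as 90% growth inhibition.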
For `COc1nc2ccc(Br)cc2cc1C(c1ccc(SC)cc1)C1(O)CCNC(Cc2ccccc2)C1` (stereo not shown) [Compound 101], the “IC90 STA B29213” value was 3.56 µg/mL (≈ 6.32 µM).
In the case of `COc1nc2ccc(Br)cc2cc1C(c1ccc(S(C)(=O)=O)cc1)C1(O)CCNC(Cc2ccccc2)C1` (stereo not shown) [Compound 102], the “IC90 STA B29213” value is reported as 3.76 µg/mL (≈ 6.31 µM).
In the case of `COc1nc2ccc(Br)cc2cc1C(c1ccc(Cl)cc1)C1(O)CCNC(Cc2ccc(F)c(F)c2)C1` (stereo not shown) [Compound 112], the “IC90 STA B29213” value is reported as 1.66 µg/mL (≈ 2.82 µM).
For `COc1nc2ccc(Br)cc2cc1C(c1ccc(Cl)cc1)C1(O)CCNC(Cc2ccc(F)c(F)c2)C1` (stereo not shown) [Compound 113], the “IC90 STA B29213” value was 2.02 µg/mL (≈ 3.44 µM).
In the case of `COc1nc2ccc(Br)cc2cc1C(c1ccc(C#N)cc1)C1(O)CCNC(Cc2ccccc2)C1` (stereo not shown) [Compound 116], the “IC90 STA B29213” value is reported as 3.42 µg/mL (≈ 6.3 µM).
For `O=c1[nH]c2ccc(Br)cc2cc1[C@@H](c1ccc(Cl)cc1)[C@]1(O)CCNC(Cc2ccccc2)C1` (stereo partly shown) [Compound 122], the “IC90 STA B29213” value was 2.88 µg/mL (≈ 5.35 µM).

Same assay, conditions: Staphylococcus aureus, ATCC29213, 24 h, 90% inhibitory concentration for bacterial growth, resazurin fluorescence, read-out: IC90 STA B29213
In the case of `COc1nc2ccc(Br)cc2cc1C(c1ccc(Cl)cc1)C1(O)CCNC(Cc2ccc(F)c(F)c2)C1` (stereo not shown) [Compound 39], the IC90 is reported as 1.17 µg/mL (≈ 1.99 µM).
For `COc1nc2ccc(SC)cc2cc1C(c1ccc(Cl)cc1)C1(O)CCNC(Cc2ccccc2)C1` (stereo not shown) [Compound 90], the IC90 was 3.18 µg/mL (≈ 6.13 µM).
Work on `COc1nc2ccc(Br)cc2cc1C(c1ccc(Cl)cc1)C1(O)CCNCC1Cc1ccccc1` (stereo not shown) [Compound 114] yielded an IC90 of 1.75 µg/mL (≈ 3.17 µM).
For `COc1nc2ccc(Br)cc2cc1C(c1ccc(C#N)cc1)C1(O)CCNC(Cc2ccccc2)C1` (stereo not shown) [Compound 115], the IC90 was 3.3 µg/mL (≈ 6.08 µM).
In the case of `COc1nc2ccc(Br)cc2cc1C(c1ccc(Cl)cc1)C1(O)CCNCC1Cc1ccccc1` (stereo not shown) [Compound 117], the IC90 is reported as 3.48 µg/mL (≈ 6.31 µM).
`O=c1[nH]c2ccc(Br)cc2cc1[C@@H](c1ccc(Cl)cc1)[C@]1(O)CCNC(Cc2ccccc2)C1` (stereo partly shown) [Compound 121] showed an IC90 of 3.62 µg/mL (≈ 6.73 µM).

Tested on: Streptococcus pneumoniae (ATCC6305)
Test: as above
Type: cell-based
Settings: 90% inhibitory concentration for bacterial growth, 24 hours, resazurin fluorescence
Method in brief: as §1
For `COc1nc2ccc(Br)cc2cc1C(c1ccc(SC)cc1)C1(O)CCNC(Cc2ccccc2)C1` (stereo not shown) [Compound 101], the “IC90 SPN 6305” value was 6.32 µg/mL (≈ 11.2 µM).
With `COc1nc2ccc(Br)cc2cc1C(c1ccc(Cl)cc1)C1(O)CCNC(Cc2ccc(F)c(F)c2)C1` (stereo not shown) [Compound 112] the “IC90 SPN 6305” value was 6.60 µg/mL (≈ 11.2 µM).
For `COc1nc2ccc(Br)cc2cc1C(c1ccc(Cl)cc1)C1(O)CCNC(Cc2ccc(F)c(F)c2)C1` (stereo not shown) [Compound 113], the “IC90 SPN 6305” value was 4.04 µg/mL (≈ 6.87 µM).
In the case of `COc1nc2ccc(Br)cc2cc1C(c1ccc(C#N)cc1)C1(O)CCNC(Cc2ccccc2)C1` (stereo not shown) [Compound 116], the “IC90 SPN 6305” value is reported as 6.83 µg/mL (≈ 12.6 µM).
With `O=c1[nH]c2ccc(Br)cc2cc1[C@@H](c1ccc(Cl)cc1)[C@]1(O)CCNC(Cc2ccccc2)C1` (stereo partly shown) [Compound 122] the “IC90 SPN 6305” value was 3.62 µg/mL (≈ 6.73 µM).

Same assay, conditions: Streptococcus pneumoniae, ATCC6305, 24 h, 90% inhibitory concentration for bacterial growth, resazurin fluorescence, read-out: IC90 SPN 6305
Work on `COc1nc2ccc(Br)cc2cc1C(c1ccc(Cl)cc1)C1(O)CCNC(Cc2ccc(F)c(F)c2)C1` (stereo not shown) [Compound 39] yielded an IC90 of 5.24 µg/mL (≈ 8.91 µM).
With `COc1nc2ccc(SC)cc2cc1C(c1ccc(Cl)cc1)C1(O)CCNC(Cc2ccccc2)C1` (stereo not shown) [Compound 90] the IC90 was 8 µg/mL (≈ 15.4 µM).
`COc1nc2ccc(Br)cc2cc1C(c1ccc(S(C)(=O)=O)cc1)C1(O)CCNC(Cc2ccccc2)C1` (stereo not shown) [Compound 102] gave an IC90 of 7.5 µg/mL (≈ 12.6 µM).
Molecule `COc1nc2ccc(Br)cc2cc1C(c1ccc(Cl)cc1)C1(O)CCNCC1Cc1ccccc1` (stereo not shown) [Compound 114] has an IC90 of 4.38 µg/mL (≈ 7.94 µM).
`COc1nc2ccc(Br)cc2cc1C(c1ccc(C#N)cc1)C1(O)CCNC(Cc2ccccc2)C1` (stereo not shown) [Compound 115] showed an IC90 of 4.16 µg/mL (≈ 7.67 µM).
For `COc1nc2ccc(Br)cc2cc1C(c1ccc(Cl)cc1)C1(O)CCNCC1Cc1ccccc1` (stereo not shown) [Compound 117], the IC90 was 5.52 µg/mL (≈ 10 µM).
For `O=c1[nH]c2ccc(Br)cc2cc1[C@@H](c1ccc(Cl)cc1)[C@]1(O)CCNC(Cc2ccccc2)C1` (stereo partly shown) [Compound 121], the IC90 was 3.62 µg/mL (≈ 6.73 µM).

Tested on: Mycobacterium smegmatis (ATCC607)
Test: In-vitro anti-bacterial activity against strain M. Smegmatis ATCC607
Type: cell-based
Settings: 90% inhibitory concentration for bacterial growth, 48 hours, Alamar Blue fluorescence
Method in brief: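 Serial five-fold compound dilutions in BSA-supplemented wells, inoculated with ~250 CFU/well in Mueller-Hinton broth, incubated 48 h at 37 °C, 5% CO2. Growth read by Alamar Blue fluorescence (ex 530/em 590 nm); IC90 in μg/ml.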
In the case of `COc1nc2ccc(Br)cc2cc1C(c1ccc(SC)cc1)C1(O)CCNC(Cc2ccccc2)C1` (stereo not shown) [Compound 101], the “IC90 MSM 607” value is reported as 1.59 µg/mL (≈ 2.82 µM).
With `COc1nc2ccc(Br)cc2cc1C(c1ccc(S(C)(=O)=O)cc1)C1(O)CCNC(Cc2ccccc2)C1` (stereo not shown) [Compound 102] the “IC90 MSM 607” value was 3.76 µg/mL (≈ 6.31 µM).
In the case of `COc1nc2ccc(Br)cc2cc1C(c1ccc(Cl)cc1)C1(O)CCNC(Cc2ccc(F)c(F)c2)C1` (stereo not shown) [Compound 112], the “IC90 MSM 607” value is reported as 0.93 µg/mL (≈ 1.58 µM).
In the case of `COc1nc2ccc(Br)cc2cc1C(c1ccc(Cl)cc1)C1(O)CCNC(Cc2ccc(F)c(F)c2)C1` (stereo not shown) [Compound 113], the “IC90 MSM 607” value is reported as 1.01 µg/mL (≈ 1.72 µM).
With `COc1nc2ccc(Br)cc2cc1C(c1ccc(Cl)cc1)C1(O)CCNCC1Cc1ccccc1` (stereo not shown) [Compound 114] the “IC90 MSM 607” value was 0.98 µg/mL (≈ 1.78 µM).
With `COc1nc2ccc(Br)cc2cc1C(c1ccc(C#N)cc1)C1(O)CCNC(Cc2ccccc2)C1` (stereo not shown) [Compound 116] the “IC90 MSM 607” value was 1.72 µg/mL (≈ 3.17 µM).
For `O=c1[nH]c2ccc(Br)cc2cc1[C@@H](c1ccc(Cl)cc1)[C@]1(O)CCNC(Cc2ccccc2)C1` (stereo partly shown) [Compound 122], the “IC90 MSM 607” value was 3.62 µg/mL (≈ 6.73 µM).

Same assay, conditions: Mycolicibacterium smegmatis, ATCC607, 48 h, 90% inhibitory concentration for bacterial growth, Alamar Blue fluorescence, read-out: IC90 MSM 607
In the case of `COc1nc2ccc(Br)cc2cc1C(c1ccc(Cl)cc1)C1(O)CCNC(Cc2ccc(F)c(F)c2)C1` (stereo not shown) [Compound 39], the IC90 is reported as 0.93 µg/mL (≈ 1.58 µM).
With `COc1nc2ccc(SC)cc2cc1C(c1ccc(Cl)cc1)C1(O)CCNC(Cc2ccccc2)C1` (stereo not shown) [Compound 90] the IC90 was 3.18 µg/mL (≈ 6.13 µM).
Molecule `COc1nc2ccc(Br)cc2cc1C(c1ccc(C#N)cc1)C1(O)CCNC(Cc2ccccc2)C1` (stereo not shown) [Compound 115] has an IC90 of 2.08 µg/mL (≈ 3.83 µM).
`COc1nc2ccc(Br)cc2cc1C(c1ccc(Cl)cc1)C1(O)CCNCC1Cc1ccccc1` (stereo not shown) [Compound 117] gave an IC90 of 2.77 µg/mL (≈ 5.02 µM).
Work on `O=c1[nH]c2ccc(Br)cc2cc1[C@@H](c1ccc(Cl)cc1)[C@]1(O)CCNC(Cc2ccccc2)C1` (stereo partly shown) [Compound 121] yielded an IC90 of 3.62 µg/mL (≈ 6.73 µM).

Tested on: not given
Test: not given
Settings: not given
Molecule `COc1nc2ccc(Br)cc2cc1C(c1ccc(Cl)cc1)C1(O)CCNC(Cc2ccc(F)c(F)c2)C1` (stereo not shown) [Compound 39] has a melting point of 106 °C.
Work on `COc1nc2ccc(Br)cc2cc1C(c1ccc(S(C)(=O)=O)cc1)C1(O)CCNC(Cc2ccccc2)C1` (stereo not shown) [Compound 102] yielded a melting point of 145 °C.
With `COc1nc2ccc(Br)cc2cc1C(c1ccc(Cl)cc1)C1(O)CCNC(Cc2ccc(F)c(F)c2)C1` (stereo not shown) [Compound 112] the melting point was 124 °C.
`COc1nc2ccc(Br)cc2cc1C(c1ccc(C#N)cc1)C1(O)CCNC(Cc2ccccc2)C1` (stereo not shown) [Compound 116] gave a melting point of 153 °C.
